{"source": "patent US20250381179A1", "about": "“CHROMAN-BASED COMPOUNDS FOR TREATING CANCER” (priority 2024, published 2025)", "key": {"[1]": {"target": "CYP1A2 (Homo sapiens, UniProt P05177)", "sequence (P05177 whole entry)": "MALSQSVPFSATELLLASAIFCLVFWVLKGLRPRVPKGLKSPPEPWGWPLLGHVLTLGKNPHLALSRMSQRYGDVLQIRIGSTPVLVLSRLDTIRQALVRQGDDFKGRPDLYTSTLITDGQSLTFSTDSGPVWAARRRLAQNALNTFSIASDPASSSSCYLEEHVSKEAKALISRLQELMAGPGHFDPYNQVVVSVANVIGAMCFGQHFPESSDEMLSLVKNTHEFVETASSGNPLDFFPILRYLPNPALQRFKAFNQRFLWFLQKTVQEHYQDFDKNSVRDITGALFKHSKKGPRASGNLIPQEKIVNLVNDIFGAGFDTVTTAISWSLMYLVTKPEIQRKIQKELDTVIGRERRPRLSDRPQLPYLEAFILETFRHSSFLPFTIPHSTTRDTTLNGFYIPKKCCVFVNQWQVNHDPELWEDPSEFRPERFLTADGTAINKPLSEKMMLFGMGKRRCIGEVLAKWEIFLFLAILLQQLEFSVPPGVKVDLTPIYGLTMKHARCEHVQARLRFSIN", "assay": "CYP1A2 direct inhibition", "assay_type": "in vitro ADME", "settings": "highest concentration evaluated (10 μM)"}, "[2]": {"tested_on": "ER+/HER2− locally advanced or metastatic breast cancer", "assay": "Phase 1 study: anti-tumor activity (RECIST v1.1; ORR, CBR, best objective response)", "assay_type": "in vivo, human", "settings": "for ORR (CR + PR) - n (%): RECIST 1.1, Investigator assessment; for Response - n (%): RECIST 1.1, efficacy evaluable set; for Confirmed Complete Response (cCR) / Confirmed Partial Response (cPR): confirmed by second assessment at least 4 weeks after first", "method": "The study employed an open-label, 3+3 design, with the option of adding backfill patients to each cohort cleared and deemed safe. […] Compound (1-g) was administered orally once daily in 28-day cycles. Tumor responses were assessed every 2 cycles using RECIST v1.1 criteria. Therefore, the initial dose of 100 mg QD was chosen to limit the number of patients exposed to lower efficacious dose levels, while adding an additional 2.5-fold safety margin. The study also involves an ongoing dose escalation study where participants receive 100 mg, 200 mg, 300 mg, 400 mg, and 600 mg once daily (QD) dose levels.\nResponse and progression will be evaluated in this study using RECIST Version 1.1. Lesions are either measurable or non-measurable according to the criteria. The actual number of dose levels to be explored in this study depended on determination of the non-tolerable dose based on DLTs. Other safety data, as well as PK profiles observed during the conduct of the study and any trends for anti-tumor activity were collected. Treatment cycles occurred consecutively. Evaluation of a cohort of at least 3 patients completing 1 cycle of treatment (28 days) is required prior to proceeding to the next dose level. In addition, selected dose levels may be expanded to approximately 20 patients (per dose level).\nAll efficacy analyses were performed using the Efficacy Evaluable Analysis Set. Objective Response Rate (ORR), defined as the proportion of patients who have measurable disease at baseline with confirmed […] or partial response (PR) (i.e., 2 CRs or PRs at least 4 weeks apart) according to the RECIST Version 1.1 criteria. Clinical Benefit Rate (CBR), defined as the proportion of patients with CR, PR, or stable disease (SD) (where SD is ≥24 weeks) according to the RECIST Version 1.1 criteria. Duration of Response (DOR), defined as the time between first documentation of a response (CR or PR) and first evidence of PD according to RECIST v1.1 or death due to any cause. […] Progression Free Survival (PFS), defined as the time from the first day of study drug administration (Day 1) until disease progression as defined by the RECIST Version 1.1 criteria, or death on study, whichever occurs first. Patients who are alive and free from disease progression were censored at the date of last tumor assessment. For ORR and CBR, estimates and the associated 95% CIs (based on the Clopper-Pearson method), at each dose level were calculated. The absolute and relative difference in ORR and CBR between the two treatment groups was presented. For PFS, Kaplan-Meier curves were generated and the median time to event, and the associated 95% CIs were provided. The hazard ratio and the 95% CIs for these endpoints between the two treatment groups was calculated.\nThe overall response is evaluated according to the criteria in Table 4.\nThe objective response rate (ORR) and the clinical benefit rate (CBR) were assessed for the participants. The clinical benefit rate (CBR), as used herein, is defined as confirmed complete response or partial response at any time and stable disease over ≥24 weeks. Evaluable participants need to complete an adequate post-treatment scan. Participants with SD who remain on study <6 months are not included in the denominator."}}, "data": [{"smiles": "O=C1CC[C@H](N2Cc3cc(N4CCN(CC5CCN(c6ccc([C@@H]7c8ccc(O)cc8OC[C@@H]7c7ccccc7)cc6F)CC5)CC4)ccc3C2=O)C(=O)N1", "note": "[compound (1-g), (S)-3-(5-(4-((1-(2-fluoro-4-((3S,4R)-7-hydroxy-3-phenylchroman-4-yl)phenyl)piperidin-4-yl)methyl)piperazin-1-yl)-1-oxoisoindolin-2-yl)piperidine-2,6-dione]", "values": [{"measurement": "CYP1A2 direct inhibition", "setting": "[1]", "result": "did not directly inhibit"}, {"measurement": "Non-Response - n (%)", "setting": "[2]; Cohort 1 (100 mg QD), N = 2", "result": "1 (50.0) n (%)"}, {"measurement": "Not Applicable (NA)", "setting": "[2]; Cohort 1 (100 mg QD), N = 2", "result": "0 n (%)"}, {"measurement": "Not Evaluable (NE)", "setting": "[2]; Cohort 1 (100 mg QD), N = 2", "result": "0 n (%)"}, {"measurement": "Progressive Disease (PD)", "setting": "[2]; Cohort 1 (100 mg QD), N = 2", "result": "0 n (%)"}, {"measurement": "Unconfirmed Complete Response (uCR)", "setting": "[2]; Cohort 1 (100 mg QD), N = 2", "result": "0 n (%)"}, {"measurement": "Unconfirmed Partial Response (uPR)", "setting": "[2]; Cohort 1 (100 mg QD), N = 2", "result": "0 n (%)"}, {"measurement": "ORR (CR + PR) - n (%)", "setting": "[2]; Cohort 1 (100 mg QD), N = 2", "result": "1 (50.0) n (%)"}, {"measurement": "Response - n (%)", "setting": "[2]; Cohort 1 (100 mg QD), N = 2", "result": "1 (50.0) n (%)"}, {"measurement": "Confirmed Complete Response (cCR)", "setting": "[2]; Cohort 1 (100 mg QD), N = 2", "result": "0 n (%)"}, {"measurement": "Confirmed Partial Response (cPR)", "setting": "[2]; Cohort 1 (100 mg QD), N = 2", "result": "1 (50.0) n (%)"}, {"measurement": "Non-Response - n (%)", "setting": "[2]; Cohort 2 (200 mg QD), N = 8", "result": "6 (75.0) n (%)"}, {"measurement": "Not Applicable (NA)", "setting": "[2]; Cohort 2 (200 mg QD), N = 8", "result": "0 n (%)"}, {"measurement": "Not Evaluable (NE)", "setting": "[2]; Cohort 2 (200 mg QD), N = 8", "result": "1 (12.5) n (%)"}, {"measurement": "Progressive Disease (PD)", "setting": "[2]; Cohort 2 (200 mg QD), N = 8", "result": "2 (25.0) n (%)"}, {"measurement": "Unconfirmed Complete Response (uCR)", "setting": "[2]; Cohort 2 (200 mg QD), N = 8", "result": "0 n (%)"}, {"measurement": "Unconfirmed Partial Response (uPR)", "setting": "[2]; Cohort 2 (200 mg QD), N = 8", "result": "0 n (%)"}, {"measurement": "ORR (CR + PR) - n (%)", "setting": "[2]; Cohort 2 (200 mg QD), N = 8", "result": "2 (25.0) n (%)"}, {"measurement": "Response - n (%)", "setting": "[2]; Cohort 2 (200 mg QD), N = 8", "result": "2 (25.0) n (%)"}, {"measurement": "Confirmed Complete Response (cCR)", "setting": "[2]; Cohort 2 (200 mg QD), N = 8", "result": "0 n (%)"}, {"measurement": "Confirmed Partial Response (cPR)", "setting": "[2]; Cohort 2 (200 mg QD), N = 8", "result": "2 (25.0) n (%)"}, {"measurement": "Non-Response - n (%)", "setting": "[2]; Cohort 3 (300 mg QD), N = 9", "result": "8 (88.9) n (%)"}, {"measurement": "Not Applicable (NA)", "setting": "[2]; Cohort 3 (300 mg QD), N = 9", "result": "0 n (%)"}, {"measurement": "Not Evaluable (NE)", "setting": "[2]; Cohort 3 (300 mg QD), N = 9", "result": "0 n (%)"}, {"measurement": "Progressive Disease (PD)", "setting": "[2]; Cohort 3 (300 mg QD), N = 9", "result": "4 (44.4) n (%)"}, {"measurement": "Unconfirmed Complete Response (uCR)", "setting": "[2]; Cohort 3 (300 mg QD), N = 9", "result": "0 n (%)"}, {"measurement": "Unconfirmed Partial Response (uPR)", "setting": "[2]; Cohort 3 (300 mg QD), N = 9", "result": "0 n (%)"}, {"measurement": "ORR (CR + PR) - n (%)", "setting": "[2]; Cohort 3 (300 mg QD), N = 9", "result": "1 (11.1) n (%)"}, {"measurement": "Response - n (%)", "setting": "[2]; Cohort 3 (300 mg QD), N = 9", "result": "1 (11.1) n (%)"}, {"measurement": "Confirmed Complete Response (cCR)", "setting": "[2]; Cohort 3 (300 mg QD), N = 9", "result": "0 n (%)"}, {"measurement": "Confirmed Partial Response (cPR)", "setting": "[2]; Cohort 3 (300 mg QD), N = 9", "result": "1 (11.1) n (%)"}, {"measurement": "Non-Response - n (%)", "setting": "[2]; Cohort 4 (400 mg QD), N = 4", "result": "4 (100) n (%)"}, {"measurement": "Not Applicable (NA)", "setting": "[2]; Cohort 4 (400 mg QD), N = 4", "result": "0 n (%)"}, {"measurement": "Not Evaluable (NE)", "setting": "[2]; Cohort 4 (400 mg QD), N = 4", "result": "0 n (%)"}, {"measurement": "Progressive Disease (PD)", "setting": "[2]; Cohort 4 (400 mg QD), N = 4", "result": "2 (50.0) n (%)"}, {"measurement": "Unconfirmed Complete Response (uCR)", "setting": "[2]; Cohort 4 (400 mg QD), N = 4", "result": "0 n (%)"}, {"measurement": "Unconfirmed Partial Response (uPR)", "setting": "[2]; Cohort 4 (400 mg QD), N = 4", "result": "0 n (%)"}, {"measurement": "ORR (CR + PR) - n (%)", "setting": "[2]; Cohort 4 (400 mg QD), N = 4", "result": "0 n (%)"}, {"measurement": "Response - n (%)", "setting": "[2]; Cohort 4 (400 mg QD), N = 4", "result": "0 n (%)"}, {"measurement": "Confirmed Complete Response (cCR)", "setting": "[2]; Cohort 4 (400 mg QD), N = 4", "result": "0 n (%)"}, {"measurement": "Confirmed Partial Response (cPR)", "setting": "[2]; Cohort 4 (400 mg QD), N = 4", "result": "0 n (%)"}, {"measurement": "Non-Response - n (%)", "setting": "[2]; Cohort 5 (600 mg QD), N = 3", "result": "3 (100) n (%)"}, {"measurement": "Not Applicable (NA)", "setting": "[2]; Cohort 5 (600 mg QD), N = 3", "result": "0 n (%)"}, {"measurement": "Not Evaluable (NE)", "setting": "[2]; Cohort 5 (600 mg QD), N = 3", "result": "0 n (%)"}, {"measurement": "Progressive Disease (PD)", "setting": "[2]; Cohort 5 (600 mg QD), N = 3", "result": "0 n (%)"}, {"measurement": "Unconfirmed Complete Response (uCR)", "setting": "[2]; Cohort 5 (600 mg QD), N = 3", "result": "0 n (%)"}, {"measurement": "Unconfirmed Partial Response (uPR)", "setting": "[2]; Cohort 5 (600 mg QD), N = 3", "result": "0 n (%)"}, {"measurement": "Response - n (%)", "setting": "[2]; Cohort 5 (600 mg QD), N = 3", "result": "0 n (%)"}, {"measurement": "Confirmed Complete Response (cCR)", "setting": "[2]; Cohort 5 (600 mg QD), N = 3", "result": "0 n (%)"}, {"measurement": "Confirmed Partial Response (cPR)", "setting": "[2]; Cohort 5 (600 mg QD), N = 3", "result": "0 n (%)"}, {"measurement": "Non-Response - n (%)", "setting": "[2]; Overall, N = 26", "result": "22 (84.6) n (%)"}, {"measurement": "Not Applicable (NA)", "setting": "[2]; Overall, N = 26", "result": "0 n (%)"}, {"measurement": "Not Evaluable (NE)", "setting": "[2]; Overall, N = 26", "result": "1 (3.8) n (%)"}, {"measurement": "Progressive Disease (PD)", "setting": "[2]; Overall, N = 26", "result": "8 (30.8) n (%)"}, {"measurement": "Unconfirmed Complete Response (uCR)", "setting": "[2]; Overall, N = 26", "result": "0 n (%)"}, {"measurement": "Unconfirmed Partial Response (uPR)", "setting": "[2]; Overall, N = 26", "result": "0 n (%)"}, {"measurement": "ORR (CR + PR) - n (%)", "setting": "[2]; Overall, N = 26", "result": "4 (15.4) n (%)"}, {"measurement": "Response - n (%)", "setting": "[2]; Overall, N = 26", "result": "4 (15.4) n (%)"}, {"measurement": "Confirmed Complete Response (cCR)", "setting": "[2]; Overall, N = 26", "result": "0 n (%)"}, {"measurement": "Confirmed Partial Response (cPR)", "setting": "[2]; Overall, N = 26", "result": "4 (15.4) n (%)"}]}]}
